{"source": "patent US10799517B2", "about": "“Oral composition of celecoxib for treatment of pain” (Dr. Reddy's Laboratories Ltd., priority 2015, dated 2020)", "origin": "cited, not measured here", "key": {"[1]": {"details": "upon oral administration"}, "[2]": {"details": "between 5° C. and 40° C.; pH independent at pH<9"}}, "data": [{"smiles": "Cc1ccc(-c2cc(C(F)(F)F)nn2-c2ccc(S(N)(=O)=O)cc2)cc1", "note": "[Celecoxib, 4-[5-(4-methylphenyl)-3-(trifluoromethyl)-1H-pyrazol-1-yl] benzenesulfonamide]", "values": [{"measurement": "time for peak plasma concentrations to be achieved", "setting": "[1]", "value": "approximately 3.0 hours"}, {"measurement": "aqueous solubility", "setting": "[2]", "value": "about 5 μg/ml"}]}]}
